In test [1] the target is T1, SARS-CoV-2 PLpro (nsp3 1564–1878) (Severe acute respiratory syndrome coronavirus 2, UniProt P0DTD1). The test can be described thus: biochemical. Also on record: FRET-quenched peptide (Pro3) cleavage by PLpro, 10 min pre-incubation, slope over 20 min, normalised to no-compound control. The following applies: high concentration screen, read-out: % of control remaining.
The target of test [2] is T1, SARS-CoV-2 PLpro (nsp3 1564–1878). The experiment in a line: biochemical. Also on record: FRET-quenched peptide (Pro3) cleavage by PLpro, 10 min pre-incubation, slope over 20 min, normalised to no-compound control. Conditions: low concentration screen, read-out: % of control remaining.

The structures appear in SMILES notation. Structures can show the parent of a compound that is named as a salt. Where two headings read alike, the source gives them in different places.

Consider `CCCCCCCCOC(=O)/C=C/c1ccc(O)c(O)c1` [n-Octyl caffeate], for which the remaining activity at 3.75 µM in test [1] (Well no.=4043) stood at 95.8%. Further, the remaining activity at 1.25 µM in test [2] (Well no.=4043) was 93.2%.
With `Oc1ccc2c3c1O[C@H]1c4[nH]c5c(c4C[C@@]4(O)[C@@H](C2)N(CC2CC2)CC[C@]314)C[C@@]1(O)[C@H]2Cc3ccc(O)c4c3[C@@]1(CCN2CC1CC1)[C@H]5O4` [nor-Binaltorphimine dihydrochloride], in test [1] (Well no.=805), the remaining activity at 3.75 µM worked out at 97%. Moreover, the remaining activity at 1.25 µM in test [2] (Well no.=805) turned out to be 100%.
`Oc1ccc2ccccc2c1SSc1c(O)ccc2ccccc12` [p21-Activated Kinase Inhibitor III, IPA-3]: the remaining activity at 3.75 µM in test [1] (Well no.=2525) was 102%. Moreover, the remaining activity at 1.25 µM in test [2] (Well no.=2525) was 99.9%.
As to `CSc1nc(-c2ccnc(NC(C)c3ccccc3)c2)c(-c2ccc(F)cc2)[nH]1` (centres unmarked) [p38 MAP Kinase Inhibitor III], the remaining activity at 3.75 µM in test [1] (Well no.=2596) stood at 94.5%. In test [2] (Well no.=2596), the remaining activity at 1.25 µM was found to be 94.7%.
As for `O=S(=O)(c1c(O)c(Cl)cc(Cl)c1Cl)c1c(O)c(Cl)cc(Cl)c1Cl` [p38 MAP Kinase Inhibitor IV], the remaining activity at 3.75 µM in test [1] (Well no.=2527) turned out to be 103%. Moreover, the remaining activity at 1.25 µM in test [2] (Well no.=2527) was found to be 97.2%.
Take `COc1cc(SC)ccc1C(=O)N1CCC(Cc2ccccc2)CC1` [p38 MAP Kinase Inhibitor VI, JX401]: in test [1] (Well no.=2529), the remaining activity at 3.75 µM came to 105%. The remaining activity at 1.25 µM in test [2] (Well no.=2529) is 101%.
For `NC(=O)c1ccc2[nH]ccc2c1` [p38 MAP Kinase Inhibitor VII, SD-169], in test [1] (Well no.=2531), the remaining activity at 3.75 µM was found to be 94.8%. Besides, in test [2] (Well no.=2531), the remaining activity at 1.25 µM was found to be 99.1%.
On to `O=c1c(-c2ccc(F)cc2)c(-c2ccncc2)[nH]n1-c1ccc(Cl)cc1` [p38 MAP Kinase Inhibitor], for which, in test [1] (Well no.=2598), the remaining activity at 3.75 µM was 99.2%. The remaining activity at 1.25 µM in test [2] (Well no.=2598) was 97.4%.
For `CC(=O)Nc1ccc(NC(=S)NC(=O)c2ccc(C(C)(C)C)cc2)cc1` [p53 Activator (Tenovin-1)], the remaining activity at 3.75 µM in test [1] (Well no.=2901) worked out at 96.4%. The remaining activity at 1.25 µM in test [2] (Well no.=2901) came to 97.7%.
Take `CCOc1cc(C(C)(C)C)ccc1C1=N[C@@](C)(c2ccc(Cl)cc2)[C@@](C)(c2ccc(Cl)cc2)N1C(=O)N1CCN(CC(=O)N2CCOCC2)CC1` [p53 and MDM2 proteins-interaction-inhibitor (dihydrochloride)]: the remaining activity at 3.75 µM in test [1] (Well no.=6832) came to 94.5%; in test [1] (Well no.=7702) it was 106%. Besides, the remaining activity at 1.25 µM in test [2] (Well no.=6832) came out at 98.9%; in test [2] (Well no.=7702), 107%.
Consider `Nc1cc(Cl)c(NC2=NCCN2)c(Cl)c1` [p-Aminoclonidine hydrochloride], for which the remaining activity at 3.75 µM in test [1] (Well no.=151) stood at 102%. Further, the remaining activity at 1.25 µM in test [2] (Well no.=151) is 102%.
With `O=C1C=CC(=O)C=C1` [p-Benzoquinone], the remaining activity at 3.75 µM in test [1] (Well no.=166) is 105%. Besides, the remaining activity at 1.25 µM in test [2] (Well no.=166) is 102%.
Turning to `N[C@@H](Cc1ccc(F)cc1)C(=O)O` [p-Fluoro-L-phenylalanine], the remaining activity at 3.75 µM in test [1] (Well no.=707) was 87%. Further, in test [2] (Well no.=707), the remaining activity at 1.25 µM came out at 95.3%.
For the molecule `O=Cc1ccc(O)cc1` [p-Hydroxybenzaldehyde], the remaining activity at 3.75 µM in test [1] (Well no.=6531) is 103%. The remaining activity at 1.25 µM in test [2] (Well no.=6531) was 103%.
As for `O=C(O)C=Cc1ccc(O)cc1` [p-Hydroxycinnamic acid], the remaining activity at 3.75 µM in test [1] (Well no.=7161) came out at 103%. Also, the remaining activity at 1.25 µM in test [2] (Well no.=7161) came to 105%.
As to `Clc1cc(I)cc(Cl)c1NC1=NCCN1` [p-Iodoclonidine hydrochloride], the remaining activity at 3.75 µM in test [1] (Well no.=873) worked out at 113%. The remaining activity at 1.25 µM in test [2] (Well no.=873) worked out at 110%.
As to `COc1ccccc1N1CCN(CCN(C(=O)c2ccc(F)cc2)c2ccccn2)CC1` [p-MPPF dihydrochloride], in test [1] (Well no.=899), the remaining activity at 3.75 µM came out at 101%. Moreover, in test [2] (Well no.=899), the remaining activity at 1.25 µM stood at 100%.
Take `COc1ccccc1N1CCN(CCN(C(=O)c2ccc(I)cc2)c2ccccn2)CC1` [p-MPPI hydrochloride]: the remaining activity at 3.75 µM in test [1] (Well no.=1137) stood at 102%. In test [2] (Well no.=1137), the remaining activity at 1.25 µM turned out to be 97.8%.
For `CNCC(O)c1ccc(O)cc1` (centres unmarked) [p-Synephrine], the remaining activity at 3.75 µM in test [1] (Well no.=7313) turned out to be 102%. Also, the remaining activity at 1.25 µM in test [2] (Well no.=7313) came out at 98.5%.
In the case of `COc1cc(C(=O)c2ccc3ncccc3c2)cc(OC)c1OC` [quinolin-6-yl(3,4,5-trimethoxyphenyl)methanone], in test [1] (Well no.=6127), the remaining activity at 3.75 µM came out at 97.9%. In addition, the remaining activity at 1.25 µM in test [2] (Well no.=6127) came out at 99.8%.
Turning to `O[C@H]1[C@H](O)[C@@H](O)[C@H](O)[C@@H](O)[C@@H]1O` [scyllo -Inositol], in test [1] (Well no.=5379), the remaining activity at 3.75 µM is 102%. In addition, the remaining activity at 1.25 µM in test [2] (Well no.=5379) is 104%.
`C[N+](C)(C)CCOP(=O)([O-])OC[C@H](O)CO` [sn-Glycero-3-phosphocholine]: the remaining activity at 3.75 µM in test [1] (Well no.=7303) was 106%. Further, in test [2] (Well no.=7303), the remaining activity at 1.25 µM stood at 106%.
Take `COCCCOc1ccnc(C[S+]([O-])c2nc3ccccc3[nH]2)c1C` (centres unmarked) [sodium 2-((4-(3-methoxypropoxy)-3-methylpyridin-2-yl)methylsulfinyl)benzo[d]imidazol-1-ide]: the remaining activity at 3.75 µM in test [1] (Well no.=6070) was 93.7%. Also, the remaining activity at 1.25 µM in test [2] (Well no.=6070) was found to be 95.8%.
As to `COc1ccnc(C[S+]([O-])c2nc3cc(OC(F)F)ccc3[nH]2)c1OC` (centres unmarked) [sodium 5-(difluoromethoxy)-2-((3,4-dimethoxypyridin-2-yl)methylsulfinyl)benzo[d]imidazol-1-ide hydrate], the remaining activity at 3.75 µM in test [1] (Well no.=5829) was found to be 96.9%. For the same molecule, the remaining activity at 1.25 µM in test [2] (Well no.=5829) was 95.3%.
Turning to `CC(C)(C)C(=O)Oc1ccc(S(=O)(=O)Nc2ccccc2C(=O)NCC(=O)O)cc1` [sodium ({2-[({4-[(2,2-dimethylpropanoyl)oxy]phenyl}sulfonyl)amino]benzoyl}amino)acetate hydrate], the remaining activity at 3.75 µM in test [1] (Well no.=5452) stood at 101%. Besides, in test [2] (Well no.=5452), the remaining activity at 1.25 µM worked out at 95.1%.
On to `CC(C)(C)c1cc(O)ccc1O` [tert-Butylhydroquinone], for which the remaining activity at 3.75 µM in test [1] (Well no.=3861) came to 97.9%. Besides, the remaining activity at 1.25 µM in test [2] (Well no.=3861) was determined as 98%.
Take `N[C@]1(C(=O)O)CC[C@H](C(=O)O)C1` [trans-ACPD]: the remaining activity at 3.75 µM in test [1] (Well no.=7040) worked out at 96.7%. Also, the remaining activity at 1.25 µM in test [2] (Well no.=7040) is 98.2%.
As for `O=C(O)/C=C(\CC(=O)O)C(=O)O` [trans-Aconitic acid], the remaining activity at 3.75 µM in test [1] (Well no.=6827) amounted to 95.7%. Besides, in test [2] (Well no.=6827), the remaining activity at 1.25 µM was found to be 94.2%.
As for `O=C(O)/C=C/C=C/C(=O)O` [trans-trans-Muconic acid], the remaining activity at 3.75 µM in test [1] (Well no.=6589) worked out at 106%. In test [2] (Well no.=6589), the remaining activity at 1.25 µM is 103%.
Take `Nc1ncnc2c1C(=O)N(c1ccc(C3CCC(CC(=O)O)CC3)cc1)CCO2` (centres unmarked) [{4-[4-(4-amino-5-oxo-7,8-dihydropyrimido[5,4-f][1,4]oxazepin-6(5H)-yl)phenyl]cyclohexyl}acetic acid]: the remaining activity at 3.75 µM in test [1] (Well no.=5830) is 103%. For the same molecule, the remaining activity at 1.25 µM in test [2] (Well no.=5830) is 105%.

Values taken from paper PMC8286840, “Identifying SARS-CoV-2 antiviral compounds by screening for small molecule inhibitors of Nsp3 papain-like protease” (Biochemical Journal, 2021).
